Assay results reported in US8722088B2, “Pharmaceutical compositions and methods for the treatment of prostate cancer” (Ferring International Center S.A., priority 2009, dated 2014).
Where a SMILES comes first, the peptide text is derived from it. [ ]: non-standard residue; d: D form. The star is where a group is joined. dPhe(4-NHCONH2) = NC(=O)Nc1ccc(C[C@@H](N)C(=O)O)cc1; Dihydroorotyl(S) = O=C1C[C@@H](C(=O)*)NC(=O)N1; dPhe(4-Cl) = N[C@H](Cc1ccc(Cl)cc1)C(=O)O; Phe(4-NH2) = Nc1ccc(C[C@H](N)C(=O)O)cc1; d2Nal = N[C@H](Cc1ccc2ccccc2c1)C(=O)O; Lys(iPr) = CC(C)NCCCC[C@H](N)C(=O)O; d3Pal = N[C@H](Cc1cccnc1)C(=O)O

Tests used:
[1] = test system: serum testosterone; assay: Previous studies, population PK/PD: proportion of patients with serum testosterone ≦0.5 ng/mL versus plasma degarelix concentration; assay type: in vivo, human
Text: (§1) Throughout the ongoing degarelix development program, population pharmacokinetic/pharmacodynamic (PK/PD) modeling and simulations have been employed to get a better understanding of the PK and PD data, and the relationship between these and other parameters. […] Because of the variability in the population, it was considered that this median plasma concentration might not be sufficient to maintain long-term testosterone suppression in approximately 95% of the patients. It was therefore proposed that the dose administered should produce mean serum trough degarelix levels of >9 ng/ml or higher in the Phase 3 studies for the one-month dosing regimen program.
The relationship between proportion of patients castrated [(T)≦0.5 ng/mL] and degarelix concentration after day 28 is illustrated in FIG. 1. FIG. 1 is based on data from 1473 prostate cancer patients in clinical studies by dividing PK levels into intervals 0-1, 1-2, 2-3 ng/mL and so forth and plotting observed proportions against PK interval midpoints together with a smoothing line with 95% confidence interval (CI). Based on this information, approximately 97% of the patients are castrated provided that degarelix concentrations stay above a threshold value of 9-10 ng/mL.

[2] = clinical; settings: human, in vivo
Text: as §1

[3] = human, in vivo
Text: At the data cut-off date (i.e., seven months after commence of the clinical trial), 133 patients with prostate cancer were exposed to degarelix in the Phase 2, three-month dosing regimen clinical program (CS18).

level at 672 h [2]: 7.34 ng/mL
level at 2016 h [2]: 4.54 ng/mL
injection site reactions of mild intensity [3]: 11%
injection site reactions of moderate intensity [3]: 11%
patients reporting severe injection site reactions [3]: 5%
Compound: CC(=O)N[C@H](Cc1ccc2ccccc2c1)C(=O)N[C@H](Cc1ccc(Cl)cc1)C(=O)N[C@H](Cc1cccnc1)C(=O)N[C@@H](CO)C(=O)N[C@@H](Cc1ccc(NC(=O)[C@@H]2CC(=O)NC(=O)N2)cc1)C(=O)N[C@H](Cc1ccc(NC(N)=O)cc1)C(=O)N[C@@H](CC(C)C)C(=O)N[C@@H](CCCCNC(C)C)C(=O)N1CCC[C@H]1C(=O)N[C@H](C)C(N)=O [Degarelix, D-Alaninamide, N-acetyl-3-(2-naphthalenyl)-D-alanyl-4-chloro-D-phenylalanyl-3-(3-pyridinyl)-D-alanyl-L-seryl-4-[[[(4S)-hexahydro-2,6-dioxo-4-pyrimidinyl]carbonyl]amino]-L-phenylalanyl-4-[(aminocarbonyl)amino]-D-phenylalanyl-L leucyl-N6-(1-methylethyl)-L-lysyl-L-prolyl] (Ac-[d2Nal][dPhe(4-Cl)][d3Pal]S[Phe(4-NH2)](Dihydroorotyl(S))[dPhe(4-NHCONH2)]L[Lys(iPr)]P[dA]-NH2)
patients achieving serum testosterone ≦0.5 ng/mL ([1]; Day 28, median trough plasma degarelix 7.34 ng/mL): 96%
patients having testosterone ≦0.5 ng/mL ([1]; Day 84, median plasma degarelix 4.54 ng/mL): 83%
hepatotoxicity: impairment of liver function [3]: do not show any clinically significant impairment of liver function
immediate anaphylactic reactions [3]: no immediate anaphylactic reactions reported
incidence of any injection site reaction [3]: 26%
